Experimental data as given in patent US20220233512A1, “INHIBITING AN IMMUNE RESPONSE MEDIATED BY ONE OR MORE OF TLR2, RAGE, CCR5, CXCR4 AND CD4” (priority 2020, published 2022).

Key:
[1] = target: T1, mu opiate receptor (MOR) (Rattus norvegicus, UniProt P33535); assay: MOR agonist activity using [35S]GTPgS binding assay in striatal membranes; assay type: biochemical
T1 construct: from tissue; host or cells: striatum (membrane preparation)
How it was run: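 Rat striatal membranes incubated 5 min at 30 °C in pH 7.5 HEPES buffer with 100 mM NaCl, 1 mM MgCl2 and 0.5 nM [35S]GTPgS, then 5 min with compound. Gαo-bound [35S]GTPgS isolated by immunoprecipitation and counted by liquid scintillation.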

[2] = target: T2, biotinylated FLNA pentapeptide of positions 2561-2565 (Homo sapiens, UniProt P21333); assay: FITC-NLX-based FLNA screening assay; assay type: binding; conditions: 100 nM frozen-stored FITC-NLX, average of two runs
T2 construct: the biotinylated FLNA pentapeptide of positions 2561-2565
Method: [50 ml of the peptide solution from B+50 ml binding medium, final concentration for DMSO: 0.5%].
The final assay volume is 100 ml.
The final screening concentration for each new compound is initially 10 mM.
Compounds are tested in triplicate or quadruplicate.

[3] = 0.1 μM compound as agonist, Series C-1 table
[4] = 0.1 μM compound as agonist, Series C-2 table
[5] = 1 μM compound as agonist, Series C-1 table
[6] = 1 μM compound as agonist, Series C-2 table

T1 sequence (P33535 whole entry): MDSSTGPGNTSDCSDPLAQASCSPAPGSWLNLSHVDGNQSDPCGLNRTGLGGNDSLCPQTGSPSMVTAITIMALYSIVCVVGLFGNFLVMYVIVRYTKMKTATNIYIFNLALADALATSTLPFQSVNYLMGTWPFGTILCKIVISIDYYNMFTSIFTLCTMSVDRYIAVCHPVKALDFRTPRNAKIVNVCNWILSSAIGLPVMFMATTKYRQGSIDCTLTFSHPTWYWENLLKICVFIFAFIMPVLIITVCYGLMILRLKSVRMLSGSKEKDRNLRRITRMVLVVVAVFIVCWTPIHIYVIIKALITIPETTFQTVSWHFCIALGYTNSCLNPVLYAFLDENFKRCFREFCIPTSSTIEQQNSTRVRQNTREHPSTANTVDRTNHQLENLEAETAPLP

## O=S(=O)(c1cccc2cccnc12)N1CCC2(CC1)OCCN2S(=O)(=O)c1cccc2cccnc12 [Compound C0143M]
[1]; [3]
  MOR agonist activity ([35S]GTPgS binding to Gao): 81.0%
[1]; [4]
  MOR agonist activity ([35S]GTPgS binding to Gao): 81.0%
[1]; 1 μM + BFNA, Series C-1 table
  MOR agonist activity ([35S]GTPgS binding to Gao): 86.5%
[1]; 1 μM + BFNA, Series C-2 table
  MOR agonist activity ([35S]GTPgS binding to Gao): 86.5%
[1]; [5]
  MOR agonist activity ([35S]GTPgS binding to Gao): 193.3%
[1]; [6]
  MOR agonist activity ([35S]GTPgS binding to Gao): 193.3%

## O=S(=O)(c1ccc(Br)c(C(F)(F)F)c1)N1CCC2(CC1)OCCN2S(=O)(=O)c1ccc(Br)c(C(F)(F)F)c1 [Compound C0077]
[1]; [3]
  MOR agonist activity ([35S]GTPgS binding to Gao): 192.7%
[1]; 1 μM + BFNA, Series C-1 table
  MOR agonist activity ([35S]GTPgS binding to Gao): 136.7%
[1]; [5]
  MOR agonist activity ([35S]GTPgS binding to Gao): 265.4%

## C=CCN1CC[C@]23c4c5ccc(O)c4O[C@H]2C(=O)CC[C@]3(O)[C@H]1C5 [(+) NLX]
[2]; 0.1 nM compound
  Percent inhibition of FITC-NLX binding (preliminary study): 22.7%
[2]; 1 nM compound
  Percent inhibition of FITC-NLX binding (preliminary study): 22.8%
[2]; 10 nM compound
  Percent inhibition of FITC-NLX binding (preliminary study): 23.1%
[2]; 100 nM compound
  Percent inhibition of FITC-NLX binding (preliminary study): 22.8%
[2]; 1 mM compound
  Percent inhibition of FITC-NLX binding (preliminary study): 39.8%

## CC(=O)c1ccc(S(=O)(=O)N2CCOC23CCN(CC(=O)O)CC3)cc1 [Compound C0100M]
[1]; [4]
  MOR agonist activity ([35S]GTPgS binding to Gao): 173.6%
[1]; 1 μM + BFNA, Series C-2 table
  MOR agonist activity ([35S]GTPgS binding to Gao): 195.6%
[1]; [6]
  MOR agonist activity ([35S]GTPgS binding to Gao): 245.9%

## CC(=O)c1ccc(S(=O)(=O)N2C(Cc3c[nH]cn3)C(=O)NC23CCNCC3)cc1 (centres unmarked) [Compound C0119M]
[1]; [4]
  MOR agonist activity ([35S]GTPgS binding to Gao): 105.7%
[1]; 1 μM + BFNA, Series C-2 table
  MOR agonist activity ([35S]GTPgS binding to Gao): 35.1%
[1]; [6]
  MOR agonist activity ([35S]GTPgS binding to Gao): 167.8%

## COc1ccccc1S(=O)(=O)N1CCC2(CC1)OCCN2S(=O)(=O)c1ccccc1OC [Compound C0003]
[1]; [3]
  MOR agonist activity ([35S]GTPgS binding to Gao): 162.3%
[1]; 1 μM + BFNA, Series C-1 table
  MOR agonist activity ([35S]GTPgS binding to Gao): 107.7%
[1]; [5]
  MOR agonist activity ([35S]GTPgS binding to Gao): 215.9%

## O=S(=O)(c1ccc(F)cc1)N1CCC2(CC1)OCCN2S(=O)(=O)c1ccc(F)cc1 [Compound C0029]
[1]; [3]
  MOR agonist activity ([35S]GTPgS binding to Gao): 175.4%
[1]; 1 μM + BFNA, Series C-1 table
  MOR agonist activity ([35S]GTPgS binding to Gao): 16.6%
[1]; [5]
  MOR agonist activity ([35S]GTPgS binding to Gao): 308.8%

## CC(=O)c1ccc(S(=O)(=O)N2CCOC23CCN(CC2CC2)CC3)cc1 [Compound C0095M]
[1]; [4]
  MOR agonist activity ([35S]GTPgS binding to Gao): 189.1%
[1]; 1 μM + BFNA, Series C-2 table
  MOR agonist activity ([35S]GTPgS binding to Gao): 107.7%
[1]; [6]
  MOR agonist activity ([35S]GTPgS binding to Gao): 224.6%

## O=C(c1ccc([N+](=O)[O-])cc1)N1CCC2(CC1)OCCN2C(=O)c1ccc([N+](=O)[O-])cc1 [Compound C0032]
[1]; [3]
  MOR agonist activity ([35S]GTPgS binding to Gao): 145.4%
[1]; 1 μM + BFNA, Series C-1 table
  MOR agonist activity ([35S]GTPgS binding to Gao): 80.9%
[1]; [5]
  MOR agonist activity ([35S]GTPgS binding to Gao): 202.0%

## N#Cc1ccccc1S(=O)(=O)N1CCC2(CC1)OCCN2S(=O)(=O)c1ccccc1C#N [Compound C0004]
[1]; [3]
  MOR agonist activity ([35S]GTPgS binding to Gao): 122.0%
[1]; 1 μM + BFNA, Series C-1 table
  MOR agonist activity ([35S]GTPgS binding to Gao): 65.8%
[1]; [5]
  MOR agonist activity ([35S]GTPgS binding to Gao): 228.4%

## Cc1ccccc1S(=O)(=O)N1CCC2(CC1)OCCN2S(=O)(=O)c1ccccc1C [Compound C0015]
[1]; [3]
  MOR agonist activity ([35S]GTPgS binding to Gao): 138.7%
[1]; 1 μM + BFNA, Series C-1 table
  MOR agonist activity ([35S]GTPgS binding to Gao): 126.8%
[1]; [5]
  MOR agonist activity ([35S]GTPgS binding to Gao): 204.7%

## CC(=O)c1ccc(S(=O)(=O)N2CCC3(CC2)NC(=O)CN3Cc2ccccc2)cc1 [Compound C0085M]
[1]; [3]
  MOR agonist activity ([35S]GTPgS binding to Gao): 211.6%
[1]; 1 μM + BFNA, Series C-1 table
  MOR agonist activity ([35S]GTPgS binding to Gao): 43.7%
[1]; [5]
  MOR agonist activity ([35S]GTPgS binding to Gao): 246.2%
